Reference: a flash point compilation (Sun et al. 2020)
Where a name gives a salt, the structure may show the parent alone.

SMILES | flash point
CCC[N+](=O)[O-] [1-Nitropropane] | 49.00 °C
C=CCC [1-Butene] | -80.00 °C
C=CC(=O)OC [Methyl acrylate] | -3.00 °C
COC(=O)c1ccccc1C(=O)OC [Dimethyl phthalate] | 146.00 °C
O=C(Cl)C(Cl)Cl [Dichloroacetyl chloride] | 66.00 °C
C/C=C/C(=O)OCC [Ethyl crotonate] | 2.00 °C
CCOC(=O)CC [Ethyl propionate] | 12.00 °C
CCOC(=O)CCl [Ethyl chloroacetate] | 66.00 °C
Cc1ccco1 [2-Methyl furan] | -30.00 °C
Cc1ccccn1 [2-Picoline] | 39.00 °C
Cc1ccc(O)cc1 [p-Cresol] | 94.00 °C
C=CC=CC [Piperylene] | -43.00 °C
NCc1ccccc1 [Benzylamine] | 63.00 °C
C=C(C)C(=O)OC [Methyl methacrylate] | 10.00 °C
OCCN(CCO)CCO [Triethanolamine] | 179.00 °C
Brc1ccccc1 [Bromobenzene] | 51.00 °C
CCC(C)=O [Methyl ethyl ketone] | -7.00 °C
CC(C)(C)O [tert-Butyl alcohol] | 10.00 °C
CC(Cl)=CCCl [1,3-Dichloro-2-butene] | 27.00 °C
C/C=C/C=O [Crotonaldehyde] | 13.00 °C
c1ccncc1 [Pyridine] | 20.00 °C
c1ccc(-c2ccccc2)cc1 [Biphenyl] | 113.00 °C
O=CCCl [Chloroacetaldehyde] | 88.00 °C
CN(C)C [Trimethyl amine] | -7.00 °C
CCCCOC(=O)C(O)C(O)C(=O)OCCCC (stereo not given) [Dibutyl tartrate] | 91.00 °C

SMILES | flash point
COC(C)(C)OC [Dimethoxypropane] | -7.00 °C
c1ccc(-c2ccccc2-c2ccccc2)cc1 [o-Terphenyl] | 163.00 °C
CCCCCC(=O)O [Caproic acid] | 102.00 °C
O=C(O)c1ccccc1O [Salicylic acid] | 157.00 °C
CC(Cl)CCl (stereo not given) [1,2-Dichloropropane] | 16.00 °C
CN(C)c1ccccc1 [N,N-Dimethylaniline ] | 63.00 °C
CC(C)(O)C#N [Acetone cyanohydrin] | 74.00 °C
S=C=S [Carbon disulphide] | -30.00 °C
O=[N+]([O-])c1ccc(Cl)c([N+](=O)[O-])c1 [1-Chloro-2,4-dinitrobenzene] | 194.00 °C
Cc1ccc(C)cc1 [p-Xylene] | 27.00 °C
CC(=O)CC(C)C [Isobutyl methyl ketone] | 17.00 °C
CC(C)c1ccccc1 [Cumene] | 44.00 °C
CCCOC(C)=O [n-Propyl acetate] | 14.00 °C
CC(O)CO (stereo not given) [1,2-Propanediol] | 99.00 °C
CC(=O)CC(C)(C)O [Diacetone alcohol] | 64.00 °C
COC(=O)OC [Dimethyl carbonate] | 19.00 °C
ClCC1CO1 (stereo not given) [Epichlorohydrin] | 41.00 °C
Cc1ccccc1Br [o-Bromotoluene] | 79.00 °C
O=C1CCCC1 [Cyclopentanone] | 26.00 °C
O=Cc1ccco1 [Furfural] | 60.00 °C
Cc1cccc(N)c1C [Xylidine] | 97.00 °C
CC(=O)CC(C)C [Methyl isobutyl ketone] | 23.00 °C
NCCNCCN [Diethylenetriamine] | 102.00 °C
NNc1ccccc1 [Phenylhydrazine] | 89.00 °C
N#Cc1ccccc1 [Benzonitrile] | 85.00 °C

SMILES | flash point
Cc1cccc(N)c1 [m-Toluidine] | 86.00 °C
C1=COCCC1 [3,4-Dihydro-2H-pyran] | -18.00 °C
OCC(O)CO [Glycerol] | 160.00 °C
c1ccc2c(c1)CCCC2 [Tetrahydronaphthalene] | 71.00 °C
CC(=O)Nc1ccccc1 [Acetanilide] | 174.00 °C
CCCCS [Butyl mercaptan] | 2.00 °C
Clc1cc(Cl)c(Cl)cc1Cl [1,2,4,5-Tetrachlorobenzene] | 155.00 °C
c1ccc(-c2cccc(-c3ccccc3)c2)cc1 [m-Terphenyl] | 135.00 °C
Oc1ccc(Cl)cc1Cl [2,4-Dichlorophenol] | 114.00 °C
CCCCOC(=O)c1ccccc1C(=O)OCCCC [Dibutyl phthalate] | 157.00 °C
CC(C)CC(O)CC(C)C [Diisobutyl carbinol] | 74.00 °C
C=CCC=CC [1,4-Hexadiene] | -21.00 °C
Nc1ccc([N+](=O)[O-])cc1 [p-Nitroaniline] | 199.00 °C
C=CC(=C)C [Isoprene] | -54.00 °C
CCCC(=O)Nc1ccccc1 [Ethyl acetanilide] | 52.00 °C
CC(Cl)(Cl)[N+](=O)[O-] [1,1-Dichloro-1-nitroethane] | 76.00 °C
O=C1CCCCC1 [Cyclohexanone] | 44.00 °C
Nc1ccccc1[N+](=O)[O-] [o-Nitroaniline] | 168.00 °C
Cc1ccc(N)cc1 [p-Toluidine] | 87.00 °C
OCCCl [Ethylene chlorohydrin] | 60.00 °C
Cc1ccccc1[N+](=O)[O-] [o-Nitrotoluene] | 106.00 °C
Oc1cccc(O)c1 [Resorcinol] | 127.00 °C
COc1ccccc1C=O [o-Anisaldehyde] | 118.00 °C

Remark: another data set of the same source

SMILES | flash point
CCO[Si](C)(C)C [Ethoxytrimethylsilane] | -27.00 °C
CCCCCC[Si](OC)(OC)OC [Hexyltrimethoxysilane] | 62.00 °C
CCCC(C)[Si](Cl)(Cl)Cl (stereo not given) [sec-Amyltrichlorosilane] | 30.00 °C
FC(F)(F)CC[Si](Cl)(Cl)Cl [Trichloro(3,3,3-trifluoropropyl)silane] | 15.00 °C
C[Si](Cl)(Cl)C(Cl)Cl [Dichloromethylmethyldichlorosilane] | 28.00 °C
C[Si](C)(C)N=C=S [Trimethylsilylisothiocyanate] | 35.00 °C
C=C[Si](OCCOC)(OCCOC)OCCOC [Vinyltris(methoxyethoxy)silane] | 80.00 °C
C[Si](C)(C)O[Si](C)(C)O[Si](C)(C)O[Si](C)(C)O[Si](C)(C)C [Dodecamethylpentasiloxane] | 79.00 °C
C=C[Si]1(C)O[Si](C)(C=C)O[Si](C)(C=C)O[Si](C)(C=C)O1 (stereo not given) [2,4,6,8-Tetravinyl-2,4,6,8-tetramethylcyclotetrasiloxane] | 112.00 °C
CC(C)C[Si](Cl)(Cl)Cl [Isobutyltrichlorosilane] | 37.00 °C
CC(C)(C)[Si](C)(Cl)C(C)(C)C [Di-t-butylmethylchlorosilane] | 69.00 °C
CO[Si](C)(OC)c1ccccc1 [Methyl phenyldimethoxysilane] | 76.00 °C
CN(C)[SiH](N(C)C)N(C)C [Tris(dimethylamino)silane] | 25.00 °C
CN(C)[Si](C)(C)N(C)C [Bis(dimethylamino)dimethylsilane] | -7.00 °C
CCCCCCCCCCCCCCCC[Si](Cl)(Cl)Cl [Hexadecyltrichlorosilane] | 154.00 °C
C[Si](C)(C)O[Si](C)(C)O[Si](C)(C)O[Si](C)(C)Cl [1-Chlorononamethyltetrasiloxane] | 74.00 °C
CCCCCCCCCC[Si](C)(Cl)Cl [n-Decylmethyldichlorosilane] | 120.00 °C
Cl[Si](Cl)(Cl)C1CCCCC1 [Cyclohexyltrichlorosilane] | 85.00 °C
CCO[Si](OCC)(OCC)c1ccccc1 [Phenyltriethoxysilane] | 120.00 °C

SMILES | flash point
CC[Si](OC(C)=O)(OC(C)=O)OC(C)=O [Ethyltriacetoxysilane] | 104.00 °C
CCCCCCCCCCCC[Si](Cl)(Cl)Cl [n-Dodecyltrichlorosilane] | 162.00 °C
ClC[Si](Cl)(Cl)Cl [Trichloro(Chloromethyl) silane] | 69.00 °C
C[Si](C)(C)C1C=CCC1 (stereo not given) [3-(Trimethylsilyl)cyclopentene] | 26.00 °C
CC(C)(C)O[Si](C)(C)C [t-Butoxytrimethylsilane] | 14.00 °C
Cl[Si](Cl)(Cl)CCc1ccccc1 [Trichloro(2-phenylethyl)silane] | 91.00 °C
CC(C)(C)[Si](Cl)(Cl)Cl [t-Butyltrichlorosilane] | 21.00 °C
CC(C)[SiH](C(C)C)C(C)C [Triisopropylsilane] | 37.00 °C
CN([Si](C)(C)C)[Si](C)(C)C [Heptamethyldisilazane] | 27.00 °C
C[Si]1(C)CCCCO1 [1,1 -Dimethyl-1-sila-2-oxacyclohexane] | 14.00 °C
CO[Si](C)(C)OC [Dimethyldimethoxysilane] | -8.00 °C
Clc1cccc([Si](Cl)(Cl)Cl)c1Cl [Trichloro(dichlorophenyl)silane] | 146.00 °C
C[Si](C)(C)C [Tetramethylsilane] | -28.00 °C
C[Si](C)(C)O[Si](C)(C)O[Si](C)(C)O[Si](C)(C)O[Si](C)(C)O[Si](C)(C)C [Tetradecamethylhexasiloxane] | 102.00 °C
CCCO[Si](C)(C)C [Trimethyl-n-propoxysilane] | 10.00 °C
Cl[Si](Cl)(c1ccccc1)c1ccccc1 [Diphenyldichlorosilane] | 142.00 °C
CO[SiH](OC)OC [Trimethoxysilane] | -9.00 °C
CC[SiH2]CC [Diethylsilane] | -20.00 °C
